Measurements reported in ChEMBL document CHEMBL4507262, “Data for DCP probe A-1596586” (2021).

Experiments:
[1] = target: Serine/threonine-protein kinase Chk2 (Homo sapiens) (UniProt O96017); conditions: Compound concentration 1000.0 nM
[2] = target: Tyrosine-protein kinase HCK (Homo sapiens) (UniProt P08631); conditions: Compound concentration 1000.0 nM
[3] = target: Macrophage-stimulating protein receptor (Homo sapiens) (UniProt Q04912); conditions: Compound concentration 1000.0 nM
[4] = target: Serine/threonine-protein kinase WNK4 (Homo sapiens) (UniProt Q96J92); conditions: Compound concentration 1000.0 nM
[5] = target: Phosphatidylinositol 4-phosphate 3-kinase C2 domain-containing subunit beta (Homo sapiens) (UniProt O00750); conditions: Compound concentration 1000.0 nM
[6] = target: Protein-tyrosine kinase 6 (Homo sapiens) (UniProt Q13882); conditions: Compound concentration 1000.0 nM
Sequence of Protein-tyrosine kinase 6 (Homo sapiens) (Q13882 whole entry, looked up): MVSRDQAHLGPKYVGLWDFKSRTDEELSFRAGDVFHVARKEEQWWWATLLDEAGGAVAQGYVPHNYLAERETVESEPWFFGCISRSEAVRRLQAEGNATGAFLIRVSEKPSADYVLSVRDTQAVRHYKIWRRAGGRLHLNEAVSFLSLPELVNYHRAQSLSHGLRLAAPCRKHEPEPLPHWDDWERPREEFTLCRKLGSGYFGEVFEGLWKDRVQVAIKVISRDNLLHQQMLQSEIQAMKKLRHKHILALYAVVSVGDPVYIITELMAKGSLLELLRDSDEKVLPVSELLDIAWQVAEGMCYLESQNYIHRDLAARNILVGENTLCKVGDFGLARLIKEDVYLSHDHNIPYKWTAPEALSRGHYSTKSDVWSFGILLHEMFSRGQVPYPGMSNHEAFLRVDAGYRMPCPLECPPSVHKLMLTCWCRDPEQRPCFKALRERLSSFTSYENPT

[7] = target: MAO-A (amine oxidase [flavin-containing] A) (Rattus norvegicus, UniProt P21396); assay: MAO-A Eurofins-Cerep binding assay; design: incubation time 60 min, incubation temperature 37°C, ligand concentration 10 nM; conditions: rat cerebral cortex, probe [3H]Ro 41-1049 (10 nM), compound concentration 10 uM, read-out: % Inhibition of Control Specific Binding (Mean n=2)
[8] = target: Serine/threonine-protein kinase RIO1 (Homo sapiens) (UniProt Q9BRS2); conditions: Compound concentration 1000.0 nM
[9] = system: Phosphatidylinositol 4,5-bisphosphate 3-kinase catalytic subunit alpha isoform (Homo sapiens), P42336 [I800L]; conditions: Compound concentration 1000.0 nM
[10] = target: Microtubule-associated serine/threonine-protein kinase 1 (Homo sapiens) (UniProt Q9Y2H9); conditions: Compound concentration 1000.0 nM
[11] = target: Dual specificity mitogen-activated protein kinase kinase 5 (Homo sapiens) (UniProt Q13163); conditions: Compound concentration 1000.0 nM
[12] = system: Phosphatidylinositol 4,5-bisphosphate 3-kinase catalytic subunit alpha isoform (Homo sapiens), P42336 [H1047Y]; conditions: Compound concentration 1000.0 nM
[13] = target: Serine/threonine-protein kinase OSR1 (Homo sapiens) (UniProt O95747); conditions: Compound concentration 1000.0 nM
[14] = target: Mitogen-activated protein kinase kinase kinase 2 (Homo sapiens) (UniProt Q9Y2U5); conditions: Compound concentration 1000.0 nM
[15] = target: Histamine H2 receptor (Homo sapiens) (UniProt P25021); conditions: Compound concentration 10.0 uM
[16] = target: Mitogen-activated protein kinase kinase kinase 20 (Homo sapiens) (UniProt Q9NYL2); conditions: Compound concentration 1000.0 nM
[17] = target: D(1A) dopamine receptor (Homo sapiens) (UniProt P21728); assay: D1 (h) Eurofins-Cerep binding assay; design: ligand concentration 0.3 nM; conditions: filed as antagonist, Compound concentration 10.0 uM
[18] = target: Serine/threonine-protein kinase Sgk3 (Homo sapiens) (UniProt Q96BR1); conditions: Compound concentration 1000.0 nM
[19] = target: Sulfonylurea receptors; K-ATP channels (Rattus norvegicus) (UniProt Q63563+P70673+Q63664+Q09429); assay: KATP channel Eurofins-Cerep binding assay; type: protein-complex assay; design: ligand concentration 0.1 nM; conditions: filed as antagonist, Compound concentration 10.0 uM
[20] = target: Serine/threonine-protein kinase 3 (Homo sapiens) (UniProt Q13188); conditions: Compound concentration 1000.0 nM
[21] = target: Tyrosine-protein kinase FRK (Homo sapiens) (UniProt P42685); conditions: Compound concentration 1000.0 nM
[22] = target: Serine/threonine-protein kinase 36 (Homo sapiens) (UniProt Q9NRP7); conditions: Compound concentration 1000.0 nM
[23] = target: Cyclin-dependent kinase 11A (Homo sapiens) (UniProt Q9UQ88); conditions: Compound concentration 1000.0 nM
Sequence of Cyclin-dependent kinase 11A (Homo sapiens) (Q9UQ88 whole entry): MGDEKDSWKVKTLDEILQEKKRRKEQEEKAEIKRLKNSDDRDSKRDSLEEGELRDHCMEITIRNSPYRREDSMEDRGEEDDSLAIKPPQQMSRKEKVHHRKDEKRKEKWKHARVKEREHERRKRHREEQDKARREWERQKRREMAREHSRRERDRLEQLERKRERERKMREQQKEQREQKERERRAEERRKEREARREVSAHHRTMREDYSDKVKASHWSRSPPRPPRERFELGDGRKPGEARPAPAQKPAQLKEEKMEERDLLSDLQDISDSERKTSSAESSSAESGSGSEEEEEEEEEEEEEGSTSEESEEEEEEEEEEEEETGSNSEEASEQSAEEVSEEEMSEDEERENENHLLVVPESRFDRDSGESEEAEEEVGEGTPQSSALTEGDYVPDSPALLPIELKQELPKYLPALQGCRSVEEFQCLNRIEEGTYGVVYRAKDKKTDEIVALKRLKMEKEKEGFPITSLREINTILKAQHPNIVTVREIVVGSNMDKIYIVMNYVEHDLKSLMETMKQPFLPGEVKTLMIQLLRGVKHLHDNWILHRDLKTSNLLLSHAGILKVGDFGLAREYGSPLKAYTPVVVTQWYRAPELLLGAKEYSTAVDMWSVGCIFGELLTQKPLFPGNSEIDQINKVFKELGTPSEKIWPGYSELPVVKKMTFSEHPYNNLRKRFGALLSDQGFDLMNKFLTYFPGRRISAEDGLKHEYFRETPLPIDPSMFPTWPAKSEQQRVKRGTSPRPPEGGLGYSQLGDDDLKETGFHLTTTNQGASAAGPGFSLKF

[24] = target: Misshapen-like kinase 1 (Homo sapiens) (UniProt Q8N4C8); conditions: Compound concentration 1000.0 nM
[25] = target: Mitogen-activated protein kinase 4 (Homo sapiens) (UniProt P31152); conditions: Compound concentration 1000.0 nM
Sequence of Mitogen-activated protein kinase 4 (Homo sapiens) (P31152 whole entry): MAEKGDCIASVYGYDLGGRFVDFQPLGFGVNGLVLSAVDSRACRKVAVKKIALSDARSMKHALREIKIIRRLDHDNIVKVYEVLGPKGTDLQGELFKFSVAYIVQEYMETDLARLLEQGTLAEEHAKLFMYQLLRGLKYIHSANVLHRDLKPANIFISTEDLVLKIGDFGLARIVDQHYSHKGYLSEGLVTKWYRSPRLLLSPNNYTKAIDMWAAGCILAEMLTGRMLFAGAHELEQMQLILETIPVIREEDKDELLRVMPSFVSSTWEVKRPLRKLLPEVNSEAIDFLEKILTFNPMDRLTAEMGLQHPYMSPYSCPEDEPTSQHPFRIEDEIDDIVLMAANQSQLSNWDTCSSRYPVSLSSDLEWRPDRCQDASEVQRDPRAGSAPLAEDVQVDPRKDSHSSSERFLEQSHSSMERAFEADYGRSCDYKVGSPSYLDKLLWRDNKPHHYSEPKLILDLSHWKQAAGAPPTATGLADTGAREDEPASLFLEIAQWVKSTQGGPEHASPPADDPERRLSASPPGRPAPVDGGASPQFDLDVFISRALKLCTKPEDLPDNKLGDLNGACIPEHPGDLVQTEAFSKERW

[26] = target: Beta-2 adrenergic receptor (Homo sapiens) (UniProt P07550); assay: Beta2 (h) Eurofins-Cerep binding assay; design: ligand concentration 0.3 nM; conditions: filed as antagonist, Compound concentration 10.0 uM
[27] = target: Cyclin-dependent kinase 7 (Homo sapiens) (UniProt P50613); conditions: Compound concentration 1000.0 nM
[28] = target: Ribosomal protein S6 kinase alpha-2 (Homo sapiens) (UniProt Q15349); conditions: Compound concentration 1000.0 nM
[29] = target: Serine/threonine-protein kinase SIK2 (Homo sapiens) (UniProt Q9H0K1); conditions: Compound concentration 1000.0 nM
[30] = target: Dual specificity protein kinase TTK (Homo sapiens) (UniProt P33981); conditions: Compound concentration 1000.0 nM
[31] = target: Phosphatidylinositol 5-phosphate 4-kinase type-2 beta (Homo sapiens) (UniProt P78356); conditions: Compound concentration 1000.0 nM
[32] = target: Tyrosine-protein kinase ZAP-70 (Homo sapiens) (UniProt P43403); conditions: Compound concentration 1000.0 nM
[33] = target: Casein kinase I isoform alpha-like (Homo sapiens) (UniProt Q8N752); conditions: Compound concentration 1000.0 nM
Sequence of Casein kinase I isoform alpha-like (Homo sapiens) (Q8N752 whole entry, canonical isoform): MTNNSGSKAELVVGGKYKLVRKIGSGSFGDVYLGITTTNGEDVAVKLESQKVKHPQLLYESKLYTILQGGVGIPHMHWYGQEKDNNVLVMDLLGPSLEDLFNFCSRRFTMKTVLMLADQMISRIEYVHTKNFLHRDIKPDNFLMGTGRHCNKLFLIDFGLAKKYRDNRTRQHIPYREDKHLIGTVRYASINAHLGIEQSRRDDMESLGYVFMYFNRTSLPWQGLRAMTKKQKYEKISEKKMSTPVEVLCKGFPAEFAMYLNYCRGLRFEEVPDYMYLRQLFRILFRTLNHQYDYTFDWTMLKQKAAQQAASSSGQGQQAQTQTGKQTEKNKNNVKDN

[34] = target: Tyrosine-protein kinase JAK1 (Homo sapiens) (UniProt P23458); conditions: Compound concentration 1000.0 nM
[35] = target: Mitogen-activated protein kinase 11 (Homo sapiens) (UniProt Q15759); conditions: Compound concentration 1000.0 nM
[36] = target: Glycogen synthase kinase-3 beta (Homo sapiens) (UniProt P49841); conditions: Compound concentration 1000.0 nM
Sequence of Glycogen synthase kinase-3 beta (Homo sapiens) (P49841 whole entry, looked up): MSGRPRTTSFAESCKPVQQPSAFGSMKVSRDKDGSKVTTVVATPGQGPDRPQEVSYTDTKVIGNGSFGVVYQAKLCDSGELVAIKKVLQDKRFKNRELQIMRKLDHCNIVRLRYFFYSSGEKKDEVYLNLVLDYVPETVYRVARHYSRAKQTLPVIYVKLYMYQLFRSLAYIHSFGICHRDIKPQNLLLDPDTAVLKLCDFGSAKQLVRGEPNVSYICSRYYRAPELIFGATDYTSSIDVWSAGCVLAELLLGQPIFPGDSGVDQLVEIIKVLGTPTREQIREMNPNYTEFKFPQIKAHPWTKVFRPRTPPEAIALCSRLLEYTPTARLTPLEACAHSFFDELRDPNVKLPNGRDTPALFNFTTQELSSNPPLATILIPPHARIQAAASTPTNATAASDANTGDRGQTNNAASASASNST

[37] = target: P2X receptor (Rattus norvegicus) (UniProt P51579+P49653+P51578+Q64663+P47824+P51577+P49654); assay: P2X Eurofins-Cerep binding assay; type: protein assay; design: ligand concentration 3 nM; conditions: filed as agonist, Compound concentration 10.0 uM
[38] = target: Ribosomal protein S6 kinase alpha-1 (Homo sapiens) (UniProt Q15418); conditions: Compound concentration 1000.0 nM
Sequence of Ribosomal protein S6 kinase alpha-1 (Homo sapiens) (Q15418 whole entry): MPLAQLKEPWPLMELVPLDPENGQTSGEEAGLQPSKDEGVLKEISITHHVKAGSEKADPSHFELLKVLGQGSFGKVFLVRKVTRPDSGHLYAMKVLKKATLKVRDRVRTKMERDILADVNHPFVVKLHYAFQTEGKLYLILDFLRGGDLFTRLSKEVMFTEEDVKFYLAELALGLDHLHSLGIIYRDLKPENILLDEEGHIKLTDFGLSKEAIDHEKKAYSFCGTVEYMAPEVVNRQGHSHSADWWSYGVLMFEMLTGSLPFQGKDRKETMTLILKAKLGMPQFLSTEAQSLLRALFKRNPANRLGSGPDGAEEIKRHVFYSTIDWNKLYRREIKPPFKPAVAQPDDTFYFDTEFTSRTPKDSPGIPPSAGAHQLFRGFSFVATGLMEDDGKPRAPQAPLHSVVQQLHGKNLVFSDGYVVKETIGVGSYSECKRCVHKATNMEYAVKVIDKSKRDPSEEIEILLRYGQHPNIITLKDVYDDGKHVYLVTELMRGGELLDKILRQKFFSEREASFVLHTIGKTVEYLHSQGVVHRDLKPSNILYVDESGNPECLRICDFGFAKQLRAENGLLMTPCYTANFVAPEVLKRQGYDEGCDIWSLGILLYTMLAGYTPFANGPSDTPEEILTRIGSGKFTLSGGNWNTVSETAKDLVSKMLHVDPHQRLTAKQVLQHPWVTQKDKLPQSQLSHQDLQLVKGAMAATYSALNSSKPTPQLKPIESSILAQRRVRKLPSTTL

[39] = system: eIF-2-alpha kinase GCN2 (Homo sapiens), Q9P2K8 [S808G]; conditions: Compound concentration 1000.0 nM
Sequence of eIF-2-alpha kinase GCN2 (Homo sapiens), Q9P2K8 [S808G] (Q9P2K8 whole entry S808G): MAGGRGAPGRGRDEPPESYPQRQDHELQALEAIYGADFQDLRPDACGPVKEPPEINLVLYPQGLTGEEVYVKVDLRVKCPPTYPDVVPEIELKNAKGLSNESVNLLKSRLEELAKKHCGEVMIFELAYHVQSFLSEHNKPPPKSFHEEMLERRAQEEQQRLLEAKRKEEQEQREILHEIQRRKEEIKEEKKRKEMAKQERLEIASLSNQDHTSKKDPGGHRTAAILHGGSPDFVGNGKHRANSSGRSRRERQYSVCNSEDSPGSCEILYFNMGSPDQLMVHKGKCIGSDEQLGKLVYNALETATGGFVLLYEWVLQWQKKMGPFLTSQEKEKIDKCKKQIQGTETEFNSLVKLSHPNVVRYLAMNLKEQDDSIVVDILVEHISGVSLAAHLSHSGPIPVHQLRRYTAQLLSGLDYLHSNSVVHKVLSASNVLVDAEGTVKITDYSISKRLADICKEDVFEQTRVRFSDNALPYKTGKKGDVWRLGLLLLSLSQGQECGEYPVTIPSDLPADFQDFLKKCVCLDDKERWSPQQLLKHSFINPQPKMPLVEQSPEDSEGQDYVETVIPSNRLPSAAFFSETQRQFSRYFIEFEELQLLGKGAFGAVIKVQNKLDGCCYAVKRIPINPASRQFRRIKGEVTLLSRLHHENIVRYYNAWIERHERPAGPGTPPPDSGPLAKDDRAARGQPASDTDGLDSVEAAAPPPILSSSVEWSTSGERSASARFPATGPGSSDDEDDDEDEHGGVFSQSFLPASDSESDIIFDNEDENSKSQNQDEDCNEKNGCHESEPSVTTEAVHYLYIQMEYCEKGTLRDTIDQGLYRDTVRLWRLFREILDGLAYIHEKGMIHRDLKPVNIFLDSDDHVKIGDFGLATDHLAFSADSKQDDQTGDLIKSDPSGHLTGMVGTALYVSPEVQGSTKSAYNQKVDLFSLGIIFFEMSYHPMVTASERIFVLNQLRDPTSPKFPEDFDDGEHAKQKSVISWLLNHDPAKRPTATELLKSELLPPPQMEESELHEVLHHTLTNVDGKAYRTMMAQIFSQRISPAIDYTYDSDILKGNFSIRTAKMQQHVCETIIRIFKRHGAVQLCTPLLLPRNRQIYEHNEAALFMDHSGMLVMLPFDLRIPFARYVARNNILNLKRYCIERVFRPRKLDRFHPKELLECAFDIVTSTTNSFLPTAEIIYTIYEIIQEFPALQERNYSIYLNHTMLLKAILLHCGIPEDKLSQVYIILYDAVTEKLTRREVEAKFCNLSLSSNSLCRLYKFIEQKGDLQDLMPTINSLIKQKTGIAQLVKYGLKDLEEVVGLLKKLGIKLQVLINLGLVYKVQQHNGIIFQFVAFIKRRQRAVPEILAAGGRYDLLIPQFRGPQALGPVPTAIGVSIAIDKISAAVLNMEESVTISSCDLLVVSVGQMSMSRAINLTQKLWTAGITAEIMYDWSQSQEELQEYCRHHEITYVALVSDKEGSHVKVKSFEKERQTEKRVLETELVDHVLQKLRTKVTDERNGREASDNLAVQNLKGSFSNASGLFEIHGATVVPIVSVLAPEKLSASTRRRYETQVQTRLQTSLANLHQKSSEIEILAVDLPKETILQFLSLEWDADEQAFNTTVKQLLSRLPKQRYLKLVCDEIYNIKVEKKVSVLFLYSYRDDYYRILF

[40] = organism: Rattus norvegicus; assay: SKCa channel Eurofins-Cerep binding assay; design: ligand concentration 0.007 nM; conditions: filed as antagonist, Compound concentration 10.0 uM
[41] = target: RAC-gamma serine/threonine-protein kinase (Homo sapiens) (UniProt Q9Y243); conditions: Compound concentration 1000.0 nM
[42] = target: Mitogen-activated protein kinase 12 (Homo sapiens) (UniProt P53778); conditions: Compound concentration 1000.0 nM
[43] = target: RAC-alpha serine/threonine-protein kinase (Homo sapiens) (UniProt P31749); conditions: Compound concentration 1000.0 nM
[44] = target: Tyrosine-protein kinase ABL1 (Homo sapiens) (UniProt P00519); conditions: Compound concentration 1000.0 nM

Compound `COc1ccc2c(c1)O[C@H](c1ccc(OC)c(OC)c1)C[C@@H]2NC(=O)C1(c2ccc3c(c2)OC(F)(F)O3)CC1` [A-1596584] has a residual activity [1] of 100%, a residual activity [2] of 100% and a residual activity [3] of 100%. It also gave a residual activity [4] of 83%, a residual activity [5] of 96% and a residual activity [6] of 100%. For the same compound, the inhibition at 60 min, 10 µM [7] was 6.4%, the residual activity [8] was 100% and the residual activity [9] was 97%. It also gave a residual activity [10] of 100%, a residual activity [11] of 76% and a residual activity [12] of 100%. For the same compound, the residual activity [13] was 98%, the residual activity [14] was 91% and the inhibition [15] was -0.89%. For the same compound, the residual activity [16] was 97%, the % Inhibition of Control Specific Binding (Mean n=2) [17] was 7.4% and the residual activity [18] was 100%. The % Inhibition of Control Specific Binding (Mean n=2) [19] was 5.1%, the residual activity [20] was 100% and the residual activity [21] was 100%. The residual activity [22] was 94%, the residual activity [23] was 100% and the residual activity [24] was 100%. The residual activity [25] was 100%, the % Inhibition of Control Specific Binding (Mean n=2) [26] was 11.6% and the residual activity [27] was 85%. For the same compound, the residual activity [28] was 95%, the residual activity [29] was 100% and the residual activity [30] was 100%. The residual activity [31] was 80%, the residual activity [32] was 93% and the residual activity [33] was 100%. The residual activity [34] was 100%, the residual activity [35] was 93% and the residual activity [36] was 100%. The % Inhibition of Control Specific Binding (Mean n=2) [37] was 4.8%, the residual activity [38] was 100% and the residual activity [39] was 97%. It also gave a % Inhibition of Control Specific Binding (Mean n=2) [40] of 4%, a residual activity [41] of 100% and a residual activity [42] of 98%. For the same compound, the residual activity [43] was 63% and the residual activity [44] was 93%.

With `COc1ccc2c(c1)O[C@@H](c1ccc(OC)c(OC)c1)C[C@H]2NC(=O)C1(c2ccc3c(c2)OC(F)(F)O3)CC1` [A-1596586] the residual activity [1] was 84%, the residual activity [2] was 88% and the residual activity [3] was 94%. The residual activity [4] was 85%, the residual activity [5] was 96% and the residual activity [6] was 100%. The inhibition at 60 min, 10 µM [7] was -1.1%, the residual activity [8] was 100% and the residual activity [9] was 79%. It also gave a residual activity [10] of 100%, a residual activity [11] of 67% and a residual activity [12] of 77%. For the same compound, the residual activity [13] was 90%, the residual activity [14] was 86% and the inhibition [15] was -6.08%. It also gave a residual activity [16] of 97%, a % Inhibition of Control Specific Binding (Mean n=2) [17] of 14% and a residual activity [18] of 84%. The % Inhibition of Control Specific Binding (Mean n=2) [19] was -1.9%, the residual activity [20] was 96% and the residual activity [21] was 100%. For the same compound, the residual activity [22] was 100%, the residual activity [23] was 100% and the residual activity [24] was 77%. It also gave a residual activity [25] of 99%, a % Inhibition of Control Specific Binding (Mean n=2) [26] of 7% and a residual activity [27] of 80%. The residual activity [28] was 95%, the residual activity [29] was 95% and the residual activity [30] was 100%. For the same compound, the residual activity [31] was 100%, the residual activity [32] was 71% and the residual activity [33] was 100%. It also gave a residual activity [34] of 100%, a residual activity [35] of 92% and a residual activity [36] of 92%. For the same compound, the % Inhibition of Control Specific Binding (Mean n=2) [37] was -21.7%, the residual activity [38] was 98% and the residual activity [39] was 95%. For the same compound, the % Inhibition of Control Specific Binding (Mean n=2) [40] was 2.2%, the residual activity [41] was 100% and the residual activity [42] was 100%. It also gave a residual activity [43] of 100% and a residual activity [44] of 80%.
